Patent US10759816B2, “Heterocyclic compounds as RSV inhibitors” (Enanta Pharmaceuticals, Inc., priority 2016, dated 2020)

Tested on: genotype A, "Long" strain RSV
Experiment: RSV-A in vitro cytoprotection assay in HEp-2 cells (ATPlite readout of cell viability)
Format: cell-based, Human respiratory syncytial virus
Details: HEp-2 cells, genotype A “Long” strain RSV, cytoprotection; read-out: Human RSV-A (“Long” strain) EC50
Method in brief: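 HEp-2 cells (8,000/well) given 2-fold compound dilutions in duplicate, then infected with RSV-A Long strain stock; viability read by ATPlite luminescence after 4 days. EC50 derived from cytoprotection; cytotoxicity measured on parallel uninfected plate.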

SMILES	EC50 [nM]
O=C(NC1CC1)c1cc2c(s1)-c1ccccc1N(C(=O)c1cccc(-c3cnn(C4CCOCC4)c3)n1)CC2 [Example 150]	> 800

Same assay, conditions: human respiratory syncytial virus, HEp-2, HEp-2 cells, genotype A “Long” strain RSV, cytoprotection; read-out: Human RSV-A (“Long” strain) EC50

SMILES	EC50 [nM]
Cc1cccc(F)c1NC(=O)c1cc2c(s1)-c1ccccc1N(C(=O)c1cccc(N(C)Cc3cccc(-c4ccncc4)c3)n1)CC2 [Example 346]	400 to 800
Cc1cccc(F)c1NC(=O)c1cc2c(s1)-c1ccccc1N(C(=O)c1cccc(NC3CCS(=O)(=O)C3)n1)CC2 (stereo not shown) [Example 438]	< 400
COc1ccccc1[C@H](C)Nc1cccc(C(=O)N2CCc3cc(C(=O)Nc4c(C)cccc4F)sc3-c3ccccc32)n1 [Example 347]	> 800
O=C(NC1CC1)c1cc2c(s1)-c1ccccc1N(C(=O)c1cccc(-c3cn[nH]c3C3CC3)n1)CC2 [Example 164]	< 400
CCOC(=O)n1cc(-c2cccc(C(=O)N3CCc4cc(C(=O)Nc5c(C)cccc5F)sc4-c4ccccc43)n2)c(C2CC2)n1 [Example 224]	< 400
O=C(Nc1ccccc1)c1cc2c(s1)-c1ccccc1N(C(=O)c1cccc(N3CCOc4ccccc4C3)n1)CC2 [Example 299]	400 to 800
Cc1cccc(F)c1NC(=O)c1cc2c(s1)-c1ccccc1N(C(=O)c1cccc(-c3ccc4occc4c3)n1)CC2 [Example 193]	> 800
Cc1cccc(F)c1NC(=O)c1cc2c(s1)-c1ccccc1N(C(=O)c1cccc(-c3cncn3-c3ccccc3)n1)CC2 [Example 203]	> 800
O=C(NC1CC1)c1cc2c(s1)-c1ccccc1N(C(=O)c1ccc(CN3CCOCC3)cc1)CC2 [Example 1]	> 800
Cc1cccc(F)c1NC(=O)c1cc2c(s1)-c1ccccc1N(C(=O)c1cccc(N3C[C@@H]4CC(F)(F)C[C@@H]4C3)n1)CC2 [Example 449]	> 800
Cc1cccc(F)c1NC(=O)c1cc2c(s1)-c1ccccc1N(C(=O)c1cccc(-c3cnoc3C)n1)CC2 [Example 262]	> 800
O=C(NC1CC1)c1cc2c(o1)-c1ccccc1N(C(=O)c1cccc(N3CCCOCC3)n1)CC2 [Example 106]	400 to 800
O=C(NC1CC1)c1cc2c(s1)-c1ccccc1N(C(=O)c1ccc3ccc(N4CCOCC4)cc3n1)CC2 [Example 298]	> 800
CS(=O)(=O)N1CC(NC(=O)c2cc3c(s2)-c2ccccc2N(C(=O)c2cccc(-c4c[nH]nc4C4CC4)n2)CC3)C1 [Example 184]	> 800
Cc1cccc(F)c1NC(=O)c1cc2c(s1)-c1ccccc1N(C(=O)c1cccc(NC[C@H]3CCCO3)n1)CC2 [Example 460]	< 400
Cc1cccc(F)c1NC(=O)c1cc2c(s1)-c1ccccc1N(C(=O)c1cccc(N3Cc4ccccc4OC(C)(C)C3)n1)CC2 [Example 332]	< 400
O=C(NC1CC1)c1cc2c(s1)-c1ccccc1N(C(=O)c1cccc(C3CCNCC3)n1)CC2 [Example 55]	> 800
Cc1cccc(F)c1NC(=O)c1cc2c(s1)-c1ccccc1N(C(=O)c1ccc(NC(=O)N3CC4(CCOCC4)C3)cc1)CC2 [Example 130]	> 800
Cc1cccc(F)c1NC(=O)c1cc2c(s1)-c1c(F)cccc1N(C(=O)c1cccc(-c3cn[nH]c3C3CC3)n1)CC2 [Example 171]	< 400
O=C(NC1CC1)c1cc2c(s1)-c1ccccc1N(S(=O)(=O)c1cccc(-c3ccnc(N4CCOCC4)c3)n1)CC2 [Example 103]	> 800
O=C(NC1CC1)c1cc2c(s1)-c1ccccc1N(C(=O)c1cccc(-c3cc(N4CCOCC4)ncc3F)n1)CC2 [Example 91]	400 to 800

SMILES	EC50 [nM]
Cc1cccc(F)c1NC(=O)c1cc2c(s1)-c1ccccc1N(C(=O)c1cccc(N3CCS(=O)(=O)c4c(F)cccc4C3)n1)CC2 [Example 435]	< 400
Cc1cccc(F)c1NC(=O)c1cc2c(s1)-c1ccccc1N(C(=O)c1cccc(NC3CS(=O)(=O)C3)n1)CC2 [Example 440]	< 400
Cc1cccc(F)c1NC(=O)c1cc2c(s1)-c1ccccc1N(C(=O)c1cccc(-c3ccc4ncccc4c3)n1)CC2 [Example 188]	< 400
Cc1cccc(F)c1NC(=O)c1cc2c(s1)-c1ccccc1N(C(=O)c1cccc(N3CCC[C@@H]3C)n1)CC2 [Example 479]	< 400
Cc1cccc(F)c1NC(=O)c1cc2c(s1)-c1ccccc1N(C(=O)c1cccc(-c3cnn(CCN(C)C)c3C3CC3)n1)CC2 [Example 229]	> 800
O=C(NC1CC1)c1cc2c(s1)-c1ccccc1N(C(=O)c1cccc(C3=CCN(C4COC4)CC3)n1)CC2 [Example 56]	> 800
O=C(Nc1cc2c(s1)-c1ccccc1N(C(=O)c1cccc(N3CCOc4ccccc4C3)n1)CC2)NS(=O)(=O)c1ccccc1 [Example 315]	> 800
COCCNC(=O)c1cc2c(s1)-c1ccccc1N(C(=O)c1cccc(-c3ccc(OC)nc3)n1)CC2 [Example 97]	400 to 800
Cc1cccc(F)c1NC(=O)c1cc2c(s1)-c1ccccc1N(C(=O)c1cccc(-c3cn(C(=O)N(C)C)nc3C3CC3)n1)CC2 [Example 219]	400 to 800
O=C(NC1CC1)c1cc2c(s1)-c1ccccc1N(C(=O)c1cccc(N3CCc4ccccc4CC3)n1)CC2 [Example 31]	> 800
Cc1cccc(F)c1NC(=O)c1cc2c(s1)-c1ccccc1N(C(=O)c1cccc(-c3ccn(C)n3)n1)CC2 [Example 235]	> 800
COCCCN(C)c1cccc(C(=O)N2CCc3cc(C(=O)Nc4c(C)cccc4F)sc3-c3ccccc32)n1 [Example 334]	> 800
Cc1cccc(F)c1NC(=O)c1cc2c(s1)-c1ccccc1N(C(=O)c1cccc(N3C[C@H]4C[C@@H]3CO4)n1)CC2 [Example 429]	< 400
O=C(Nc1ccccn1)c1cc2c(s1)-c1ccccc1N(C(=O)c1cccc(N3CCOc4ccccc4C3)n1)CC2 [Example 300]	> 800
O=C(Nc1cccc(=O)[nH]1)c1cc2c(s1)-c1ccccc1N(C(=O)c1cccc(N3CCOc4ccccc4C3)n1)CC2 [Example 304]	> 800
O=C(NC1CC1)c1cc2c(s1)-c1ccccc1N(C(=O)c1cccc(N3CCOc4ccccc4C3=O)n1)CC2 [Example 414]	> 800
Cc1cccc(F)c1NC(=O)c1cc2c(s1)-c1ccccc1N(C(=O)c1cccc(N(C)CCNC(=O)OC(C)(C)C)n1)CC2 [Example 370]	400 to 800
O=C(NC1CC1)c1cc2c(s1)-c1ccccc1N(C(=O)c1ccc(Cl)c(N3CCCOCC3)n1)CC2 [Example 43]	400 to 800
Cc1cccc(F)c1NC(=O)c1cc2c(s1)-c1ccccc1N(C(=O)c1cccc(NCc3cccc(C(F)(F)F)n3)n1)CC2 [Example 357]	> 800
Cc1cccc(F)c1NC(=O)c1cc2c(s1)-c1ccccc1N(C(=O)c1cccc(-c3ccc4[nH]c(=O)ccc4c3)n1)CC2 [Example 190]	< 400
COc1ccc(-c2cccc(C(=O)N3CCc4cnc(NC(=O)C5CC5)nc4-c4ccccc43)n2)cn1 [Example 110]	> 800

SMILES	EC50 [nM]
Cc1noc([C@H]2C[C@H](O)CN2c2cccc(C(=O)N3CCc4cc(C(=O)Nc5c(C)cccc5F)sc4-c4ccccc43)n2)n1 [Example 497]	> 800
Cc1cccc(F)c1NC(=O)c1cc2c(s1)-c1ccccc1N(C(=O)c1cccc(N3CCC[C@@H]3Cc3ccccc3)n1)CC2 [Example 486]	> 800
Cc1cccc(F)c1NC(=O)c1cc2c(s1)-c1ccccc1N(C(=O)c1cccc(N3C[C@@H](N)C[C@@H]3C)n1)CC2 [Example 390]	> 800
Cc1cccc(F)c1NC(=O)c1cc2c(s1)-c1ccccc1N(C(=O)c1cccc(-c3cn(C(=O)OC(C)(C)C)c4ccc(Cl)cc34)n1)CC2 [Example 248]	> 800
CC(=O)N1CCCN(c2cccc(C(=O)N3CCc4cc(C(=O)Nc5c(C)cccc5F)sc4-c4ccccc43)n2)CC1 [Example 387]	< 400
O=C(NC1CC1)c1cc2c(s1)-c1ccccc1N(C(=O)c1cccc(CN3CCOCC3)c1)CC2 [Example 2]	> 800
Cc1cccc2c1CN(c1cccc(C(=O)N3CCc4cc(C(=O)Nc5c(C)cccc5F)sc4-c4ccccc43)n1)CCO2 [Example 405]	< 400
Cc1cccc(F)c1NC(=O)c1cc2c(s1)-c1ccccc1N(C(=O)c1cccc(N(C)Cc3ccccn3)n1)CC2 [Example 337]	< 400
O=C(NC1CC1)c1cc2c(s1)-c1ccccc1N(C(=O)c1cccc(-c3cncc(N4CCOCC4)c3)n1)CC2 [Example 157]	400 to 800
Cc1cccc(F)c1NC(=O)c1cc2c(s1)-c1ccccc1N(C(=O)c1cccc(N(C)CCN)n1)CC2 [Example 371]	400 to 800
Cc1cccc(F)c1NC(=O)c1cc2c(o1)-c1ccccc1N(C(=O)c1cccc(-c3c[nH]c4ncccc34)n1)CC2 [Example 274]	< 400
Cc1cnc(N2CC3(CCOCC3)C2)c(NC(=O)c2ccc(C(=O)N3CCc4cc(C(=O)Nc5c(C)cccc5F)sc4-c4ccccc43)cc2)c1 [Example 142]	< 400
O=C(NC1CC1)c1cc2c(s1)-c1ccccc1N(C(=O)c1cccc(N3CCS(=O)(=O)c4ccccc4C3)n1)CC2 [Example 283]	< 400
Cc1cccc(F)c1NC(=O)c1cc2c(s1)-c1ccccc1N(C(=O)c1cccc(N3CCOc4ccc(Cl)cc4C3)n1)CC2 [Example 417]	< 400
O=C(Nc1ccc[nH]c1=O)c1cc2c(s1)-c1ccccc1N(C(=O)c1cccc(N3CCOc4ccccc4C3)n1)CC2 [Example 303]	> 800
Cc1cccc(F)c1NC(=O)c1cc2c(s1)-c1ccccc1N(C(=O)c1cccc(N(C)C3CCS(=O)(=O)CC3)n1)CC2 [Example 455]	> 800
COC[C@H]1CCCN1c1cccc(C(=O)N2CCc3cc(C(=O)Nc4c(C)cccc4F)sc3-c3ccccc32)n1 [Example 506]	< 400
CC(=O)N1CCC(c2cccc(C(=O)N3CCc4cc(C(=O)NC5CC5)sc4-c4ccccc43)n2)CC1 [Example 58]	400 to 800
Cc1cccc(F)c1NC(=O)c1cc2c(s1)-c1ccccc1N(C(=O)c1cccc(-c3coc4ccncc34)n1)CC2 [Example 258]	> 800
Cc1cccc(F)c1NC(=O)c1cc2c(s1)-c1ccccc1N(C(=O)c1cccc(N[C@H](CO)c3ccccc3)n1)CC2 [Example 502]	< 400
O=C(NC1CC1)c1cc2c(s1)-c1ccccc1N(C(=O)c1cccc(NCc3ccccn3)n1)CC2 [Example 288]	> 800
